Test results taken from patent US20200375987A1, “METALLO-BETA-LACTAMASE INHIBITORS AND METHODS OF USE THEREOF” (priority 2018, published 2020).
Converted amounts (≈) assume the structure as drawn.

What was measured:
[1] = tested on: Pseudomonas aeruginosa MB5919 Trans pFlp-Vim2 plasmid (efflux+); type: cell-based; conditions: MB 5919 Trans pFlp-Vim2 plasmid, OprD+
[2] = tested on: Pseudomonas aeruginosa PAO1 MB5919 (oprD+, efflux+); type: cell-based
From the text: (§1) The strain background is Pseudomonas aeruginosa PAO1. A wild-type (MB5919) and an isogenic strain in which multiple efflux pumps have been disrupted genetically were used. The MBL IMP-1, obtained from a clinical isolate was introduced into the strain pair by the following process:
(§2) Plasmid DNA (encoding IMP-1) was extracted from CL 5673 (IMP-1, P. aeruginosa clinical strain) by standard techniques. The plasmid DNA was transformed into parental MB5919 (oprD+, efflux+, inducible AmpC) and MB5890 (oprD+, efflux−, inducible AmpC) isogenic strains by electroporation. These transformed strains were plated onto cation-adjusted Muller-Hinton agar plates containing ceftazidime at 32 μg/mL (MB5919) and 16 μg/mL (MB5890) to select for those cells in which the IMP-1-expressing plasmid was introduced successfully, resulting in resistance to ceftazidime.
(§3) Minimum inhibitory concentrations of sentinel antibiotics were performed to quality control the new strains.

[3] = tested on: Pseudomonas aeruginosa MB9799 (MB5890 Trans IMP1 plasmid, efflux−); type: cell-based; conditions: MB 5890 Trans IMP1 plasmid (MB 9799), OprD+
From the text: as §1, §2, §3

[4] = tested on: Pseudomonas aeruginosa MB9798 (MB5919 Trans IMP1 plasmid, efflux+); type: cell-based; conditions: MB5919 Trans IMP1 plasmid (MB 9798), OprD+
From the text: as §1, §2, §3

[5] = tested on: Pseudomonas aeruginosa MB5890 (oprD+, efflux−); type: cell-based; conditions: MB 5890, OprD+
From the text: as §1, §2, §3

[6] = tested on: Pseudomonas aeruginosa MB9861 (MB5919 Trans pFlp-Vim1 plasmid, efflux+); type: cell-based; conditions: MB5919 Trans pFlp-Vim1 plasmid (MB 9861), OprD+
[7] = tested on: Pseudomonas aeruginosa MB5890 Trans pFlp-Vim2 plasmid (efflux−); type: cell-based; conditions: MB 5890 Trans pFlp-Vim2 plasmid, OprD+
[8] = tested on: Pseudomonas aeruginosa MB9862 (MB5890 trans pFlp-Vim1 plasmid, efflux−); type: cell-based; conditions: MB 5890 trans pFlp-Vim1 plasmid (MB 9862), OprD+
IMP-1 = IMP-1 (Serratia marcescens, UniProt P52699); assay: Enzyme activity: determination of IC50, fluorescence assay with CCF2-FA substrate (IMP-1); type: biochemical; conditions: 2 pM enzyme, 1.25 μM CCF2-FA, 2 hours at 25° C.; read-out: IMP1 IC50
Sequence of IMP-1 (P52699 19-246, looked up, species assumed): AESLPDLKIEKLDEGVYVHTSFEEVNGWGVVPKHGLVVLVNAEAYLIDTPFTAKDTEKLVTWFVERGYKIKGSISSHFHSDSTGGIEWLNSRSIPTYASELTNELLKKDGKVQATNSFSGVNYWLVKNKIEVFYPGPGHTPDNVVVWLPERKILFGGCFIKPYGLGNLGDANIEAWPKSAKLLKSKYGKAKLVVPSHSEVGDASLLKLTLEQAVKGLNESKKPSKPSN
Method in brief: (§4)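 Enzyme (NDM-1 1 pM, IMP-1 2 pM, VIM-1 30 pM final) and 1.25 μM CCF2-FA incubated with inhibitor (20 to 0.00063 μM) for 2 h at 25° C in 100 mM KH2PO4 pH 7, 0.005% Tween-20, 10 μM ZnSO4. Fluorescence read at ex 405/em 460 nm; IC50 by 4-parameter fit.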

[9] = tested on: Serratia marcescens expressing IMP-1 (CL5741); assay: Antibiotic potentiation activity: synergistic concentration (MITC95) with imipenem; type: cell-based; conditions: imipenem 1 μg/mL; lowest concentration inhibiting 95% of growth; 35° C., 22-24 hours
Method in brief: (§5)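 Clinical MBL-expressing strains diluted into 1.1× CAMHB were incubated with compound plus imipenem at 1 μg/mL for 22–24 h at 35 °C, then absorbance was read. MITC95 is the lowest compound concentration giving 95% growth inhibition in the presence of imipenem.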

[10] = tested on: Klebsiella pneumoniae expressing VIM-1 (IHMA599644); assay: as above; type: cell-based; conditions: imipenem 1 μg/mL; lowest concentration inhibiting 95% of growth; 35° C., 22-24 hours
Method in brief: as §5

[11] = tested on: Escherichia coli expressing NDM-1 (CLB30016); assay: as above; type: cell-based; conditions: imipenem 1 μg/mL; lowest concentration inhibiting 95% of growth; 35° C., 22-24 hours
Method in brief: as §5

VIM-1 = VIM-1 (Pseudomonas aeruginosa, UniProt A0A0F7KYQ8); assay: Enzyme activity: determination of IC50, fluorescence assay with CCF2-FA substrate (VIM-1); type: biochemical; conditions: 30 pM enzyme, 1.25 μM CCF2-FA, 2 hours at 25° C.; read-out: VIM1 IC50
Method in brief: as §4

VIM-2 = VIM-2 (Escherichia coli, UniProt Q5U7L7); assay: Enzyme activity: determination of IC50 (VIM-2); type: biochemical; conditions: read-out: VIM2 IC50
[12] = tested on: P. aeruginosa MB9799 (efflux mutant, IMP-1); assay: Efflux: concentration of MBL inhibitor restoring susceptibility to imipenem (MITC95), efflux− strain; type: cell-based, Pseudomonas aeruginosa; conditions: imipenem at 2 μg/mL in the presence of a class A, C, D serine β-lactamase inhibitor closely related to relebactam
Method in brief: (§6)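 Isogenic P. aeruginosa PAO1 strains, efflux+ and efflux−, transformed with IMP-1 plasmid, were tested by microbroth MIC with fixed imipenem, usually at CLSI breakpoint, plus fixed class A/C β-lactamase inhibitor against AmpC. MBL inhibitor was serially titrated; the concentration restoring susceptibility was recorded.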

[13] = tested on: P. aeruginosa MB9798 (efflux WT, IMP-1); assay: Efflux: concentration of MBL inhibitor restoring susceptibility to imipenem (MITC95), efflux+ strain; type: cell-based, Pseudomonas aeruginosa; conditions: imipenem at 2 μg/mL in the presence of a class A, C, D serine β-lactamase inhibitor closely related to relebactam
Method in brief: as §6

NDM-1 = NDM-1 (Klebsiella pneumoniae, UniProt C7C422); assay: Enzyme activity: determination of IC50, fluorescence assay with CCF2-FA substrate (NDM-1); type: biochemical; conditions: 1 pM enzyme, 1.25 μM CCF2-FA, 2 hours at 25° C.; read-out: NDM1 IC50
Sequence of NDM-1 (C7C422 29-270, looked up, species assumed): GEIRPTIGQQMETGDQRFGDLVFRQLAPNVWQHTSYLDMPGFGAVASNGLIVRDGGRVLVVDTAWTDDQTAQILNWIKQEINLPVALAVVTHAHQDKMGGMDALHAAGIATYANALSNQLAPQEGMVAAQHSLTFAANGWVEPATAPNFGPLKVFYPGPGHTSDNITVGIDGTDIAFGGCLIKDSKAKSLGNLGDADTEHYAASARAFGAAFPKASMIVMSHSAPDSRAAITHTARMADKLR
Method in brief: as §4

Structure (SMILES) | MIC [1] | MIC [2] | MIC [3] | MIC [4] | MIC [5] | MIC [6] | MIC [7] | MIC [8] | IC50 (IMP-1) | CL5741 S.marcescens MITC95 uM IMP [9] | IHMA599644 K.pneumoniae MITC95 uM VIM [10] | CLB30016 E.coli MITC95 NDM [11] | IC50 (VIM-1) | IC50 (VIM-2) | MB9799 MITC95 P. aeruginosa Efflux Mutant [12] | MB9798 MITC95 P. aeruginosa Efflux WT [13] | IC50 (NDM-1)
C[C@@H](O)[C@H]1C(=O)N2C(C(=O)O)=C(S[C@@H]3CN[C@H](C(=O)N(C)C)C3)[C@H](C)[C@H]12 [Meropenem] | > 64 µg/mL | 2 µg/mL (≈ 5.22 µM) | 64 µg/mL (≈ 167 µM) | > 64 µg/mL | 0.5 µg/mL (≈ 1.3 µM) | > 64 µg/mL | 32 µg/mL (≈ 83.4 µM) | 64 µg/mL (≈ 167 µM) | – | – | – | – | – | – | – | – | –
O=C(N[C@H](CO)[C@H](O)c1ccc([N+](=O)[O-])cc1)C(Cl)Cl [Chloramphenicol] | > 64 µg/mL | > 64 µg/mL | 1 µg/mL (≈ 3.09 µM) | > 64 µg/mL | 1 µg/mL (≈ 3.09 µM) | > 64 µg/mL | 1 µg/mL (≈ 3.09 µM) | 2 µg/mL (≈ 6.19 µM) | – | – | – | – | – | – | – | – | –
CCN1CCN(C(=O)N[C@@H](C(=O)N[C@@H]2C(=O)N3[C@@H]2SC(C)(C)[C@@H]3C(=O)O)c2ccccc2)C(=O)C1=O [Pipercillin] | > 256 µg/mL | 2 µg/mL (≈ 3.86 µM) | 4 µg/mL (≈ 7.73 µM) | 4 µg/mL (≈ 7.73 µM) | 1 µg/mL (≈ 1.93 µM) | > 256 µg/mL | 128 µg/mL (≈ 247 µM) | 128 µg/mL (≈ 247 µM) | – | – | – | – | – | – | – | – | –
C[C@@H](O)[C@H]1C(=O)N2C(C(=O)O)=C(SCCN=CN)C[C@H]12 [Imipenem] | > 64 µg/mL | 4 µg/mL (≈ 13.4 µM) | 32 µg/mL (≈ 107 µM) | 64 µg/mL (≈ 214 µM) | 2 µg/mL (≈ 6.68 µM) | > 64 µg/mL | 32 µg/mL (≈ 107 µM) | 64 µg/mL (≈ 214 µM) | – | – | – | – | – | – | – | – | –
CC[C@H]1OC(=O)[C@H](C)[C@@H](O[C@H]2C[C@@](C)(OC)[C@@H](O)[C@H](C)O2)[C@H](C)[C@@H](O[C@@H]2O[C@H](C)C[C@H](N(C)C)[C@H]2O)[C@](C)(O)C[C@@H](C)CN(C)[C@H](C)[C@@H](O)[C@]1(C)O [Azithromycin] | 32 µg/mL (≈ 42.7 µM) | 16 µg/mL (≈ 21.4 µM) | 2 µg/mL (≈ 2.67 µM) | 2 µg/mL (≈ 2.67 µM) | 1 µg/mL (≈ 1.34 µM) | 32 µg/mL (≈ 42.7 µM) | 1 µg/mL (≈ 1.34 µM) | 1 µg/mL (≈ 1.34 µM) | – | – | – | – | – | – | – | – | –
NS(=O)(=O)c1c(S(=O)(=O)N[C@@H]2CCNC2)ccc(N2CCCc3ccncc32)c1-c1nnn[nH]1 [Example 21, 4-(3,4-dihydro-1,7-naphthyridin-1(2H)-yl)-N1-[(3R)-pyrrolidin-3-yl]-3-(1H-tetrazol-5-yl)benzene-1,2-disulfonamide] | – | – | – | – | – | – | – | – | 2.46 nM | 0.78 µM | 6.25 µM | 0.20 µM | 0.22 nM | 1.24 nM | 1.56 µM | 3.13 µM | 0.21 nM
CC(C)(O/N=C(\C(=O)N[C@@H]1C(=O)N2C(C(=O)[O-])=C(C[n+]3ccccc3)CS[C@H]12)c1csc(N)n1)C(=O)O [CAZ, ceftazidime] | 128 µg/mL (≈ 234 µM) | 1 µg/mL (≈ 1.83 µM) | 256 µg/mL (≈ 468 µM) | 256 µg/mL (≈ 468 µM) | 0.5 µg/mL (≈ 0.915 µM) | > 256 µg/mL | 64 µg/mL (≈ 117 µM) | > 256 µg/mL | – | – | – | – | – | – | – | – | –
